The nature of data set [1]: Thermogravimetric analysis (TGA) and differential scanning calorimetry (DSC). Format: physicochemical. Particulars: heating 20° C./min, nitrogen. The procedure: For the TGA analysis, approximately 5-10 mg of sample of Example Compound 1 was accurately weighed into a pierced Tzero aluminium pan and sealed with a pinhole lid using a crimper. The sample was then loaded into the chamber of a TGA thermal analyser at ambient temperature. A TA Instruments TGA5500 device was used. The sample was then heated at a rate of 20° C./min from 20° C. to 400° C. The purge gas used was nitrogen at a flow rate of 50 cm^3/min.
For the DSC analysis, approximately 2 mg of sample was accurately weighed into a pierced Tzero aluminium pan and sealed using a universal crimper. The sample was then loaded into the chamber of a DSC analyser at ambient temperature. A TA Instruments DSC2500 device was used. The sample was then heated at a rate of 20° C./min from 30° C. to 400° C. The purge gas used was nitrogen at a flow rate of 50 cm^3/min
Background: In DSC, transitions show as peaks or steps in heat flow.

The nature of data set [2]: Slurry in water for 48 hours, re-examined by XRPD (disproportionation). Format: physicochemical. The settings on record: slurry in water 20 mg / 400 uL, ambient temperature. The procedure:
When a sample of Example compound 1 was stored in a slurry in water at 20 mg / 400uL for 48 hours at ambient temperature, recovered, dried by evaporation and re-examined by XRPD, there was no change in the X-ray diffractogram.

Data set [3] in a line: Hygroscopicity by Dynamic Vapour Sorption (DVS). Format: physicochemical. Particulars: 25° C.; for Hygroscopicity: DVS, 0 to 90% RH; for Reversible weight gain (DVS): analysed to 80% RH. As for the experimental part:
Dynamic Vapour Sorption (DVS) analysis was carried out on a sample of Example compound 1.
Approximately 20 mg of sample was placed into a wire-mesh vapour sorption balance pan and loaded into an ‘IgaSorp’ vapour sorption balance (Hiden Analytical Instruments). The sample was then dried by maintaining a 0% humidity environment until no further weight change was recorded.
The sample was then subjected to a step profile from 0 to 90% RH at 10% RH increments. The desorption isotherm was from 90% RH o 0% RH in 10% RH steps. The weight change during the sorption/desorption cycles were then monitored, allowing for the hygroscopic nature of the sample to be determined. Analysis was performed using the following parameters: • Analysis Mode F1 • Wait Time 99% • Sample Temperature 25° C. • Min Time Out 30 Mins • MaxTime Out 180 Mins • Gas Flow Rate 250 ml/min

A short description of data set [4]: Solubility in PBS (pH 7.4) and simulated colonic fluid, saturated solutions by HPLC-UV. Format: physicochemical. Particulars: saturated solution, ambient temperature. As for the experimental part: The solubility and stability at room temperature of Example compound 1 and the free acid compound 5-chloro-4-hydroxy-1-methyl-2-oxo-N-phenyl-quinoline-3-carboxamide (described in Example 1a) above) was determined in PBS (pH 7.4) and in simulated colonic fluid (SCF) at ambient temperature. The SCF was the product FaSSCof obtained from Biorelevant.com prepared according to the manufacturer’s instructions. FaSSCof contains 0.15 mM sodium cholate, 0.3 mM Phospholipids, 0.1 mM Oleate, 120 mM sodium hydroxide, 45 mM TRIS and 76 mM maleate.
Saturated solutions were prepared in these solvents and the concentrations/impurity profile was determined by HPLC-UV using a calibration curve in the range of 1 to 150 µg/ml at 300 nm or 320 nm. Visual evaluation was also performed after every step over the testing period.

The test system of data set [5] is Ulcerative Colitis modelled by Dextran Sulphate Sodium (DSS). Put plainly: DSS mouse model of Ulcerative Colitis. In kind it is in vivo, C57B1/6 mice. The settings on record: 1 mg/kg daily oral; for Colitis clinical score: Day 9, vs vehicle-treated controls, FIG. 8; for Colon length: Day 10 termination, FIG. 10. The procedure:
Ulcerative Colitis was modelled in C57B1/6 mice by administering Dextran Sulphate Sodium (DSS) in drinking water (1.5% w/v) for 5 days. Mice were monitored daily for weight loss and clinical symptoms of disease for 10 days starting at the beginning of DSS administration.
Anti-TNFα antibody was administered at 500 µg/treatment on Days 0, 2, 4, and 6. Following termination on Day 10, colons were removed and measured. The length and weight of the colon were also assessed.
Compared to naive animals, animals given DSS water developed clinical signs of disease including weight loss and diarrhoea as well as gross pathological signs of disease on experiment termination. […] Shortened length and increased weight:length ratio indicates edema associated with ulcerative colitis.

Where [6] appears, read: listed as 5-chloro-4-hydroxy-1-methyl-2-oxo-N-phenyl-quinoline-3-carboxamide free acid.

Here are results for three compounds from patent US20230202982A1, “5-CHLORO-4-HYDROXY-1-METHYL-2-OXO-N-PHENYL-QUINOLINE-3-CARBOXAMIDE POTASSIUM SALT FOR TREATING INFLAMMATORY BOWEL DISEASES” (Aqilion AB, priority 2020, published 2023).

A word on the solubility: it is how much of the substance goes into solution per volume.

In brackets after ≈: the same amount, converted by molar mass. Entries after “also recorded” stand apart in the source; their conditions may differ. Counter-ions that a name gives are not always drawn.

For `Cn1c(=O)c(C(=O)Nc2ccccc2)c(O)c2c(Cl)cccc21` [Example compound 2, 5-chloro-4-hydroxy-1-methyl-2-oxo-N-phenyl-quinoline-3-carboxamide sodium salt], the Degradation temperature result in data set [1] (listed as 5-chloro-4-hydroxy-1-methyl-2-oxo-N-phenyl-quinoline-3-carboxamide sodium salt, sodium salt) is “around 350 °C”. For the same compound, in data set [1] (listed as Example Compound 2, sodium salt), the Degradation temperature is 350 °C ±2 °C. Besides, in data set [2], the “Stability in water slurry: change in X-ray diffractogram” value is “slight changes”. In addition, in data set [3], the Hygroscopicity result was “slightly hygroscopic” and the “Reversible weight gain (DVS)” value was found to be 1%.

`Cn1c(=O)c(C(=O)Nc2ccccc2)c([O-])c2c(Cl)cccc21.[Li+]` [Example compound 3, 5-chloro-4-hydroxy-1-methyl-2-oxo-N-phenyl-quinoline-3-carboxamide lithium salt]: the Degradation temperature entry in data set [1] (listed as 5-chloro-4-hydroxy-1-methyl-2-oxo-N-phenyl-quinoline-3-carboxamide lithium salt, lithium salt) was “around 360 °C”. Also, the Degradation temperature in data set [1] (listed as Example Compound 3, lithium salt) is 360 °C ±2 °C. Also, in data set [2], the “Stability in water slurry: change in X-ray diffractogram” value was “slight changes”. For the same compound, in data set [3], the Hygroscopicity entry was “slightly hygroscopic” and the “Reversible weight gain (DVS)” value is given as “less than 0.25%”.

As to `Cn1c(=O)c(C(=O)Nc2ccccc2)c(O)c2c(Cl)cccc21` [Free Acid, 5-chloro-4-hydroxy-1-methyl-2-oxo-N-phenyl-quinoline-3-carboxamide], the “Solubility in PBS (pH7.4)” value in data set [4] (PBS (pH 7.4), listed as 5-chloro-4-hydroxy-1-methyl-2-oxo-N-phenyl-quinoline-3-carboxamide free acid) is on record as “not quantifiable; also recorded: Non quantifiable”. The solubility in data set [4] (simulated colonic fluid (FaSSCof), fassgf or other biorelevant, thermodynamic from solid, SCF (FaSSCof), read-out: Solubility in simulated colonic fluid (SCF)) is 3.44 µg/mL (≈ 10.5 µM). In addition, the figures for the Degradation temperature in data set [1] and in data set [1] (setting [6]) were 260 °C ±2 °C and 260 °C, respectively. Further, the Colitis clinical score result in data set [5] is listed as “protective effect against the development of the clinical symptoms”; in data set [5] (setting [6]) it was “significant reduction”; in data set [5] (listed as 5-chloro-4-hydroxy-1-methyl-2-oxoN-phenyl-quinoline-3-carboxamide free acid), “lower colitis score”. For the same compound, the Colon length entry in data set [5] (vs vehicle-treated controls) is listed as “effective at reducing colon shortening”; in data set [5] (vs vehicle-treated controls, listed as 5-chloro-4-hydroxy-1-methyl-2-oxo-N-phenyl-quinoline-3-carboxamide free acid), “significant increase; also recorded: greater colon length”. The “Body weight change (% change from day 1 of experiment)” value in data set [5] (vs vehicle-treated controls, FIG. 9) is “reduced weight loss”.
